Experimental data taken from patent US9096560B2, “5-heterocyclylalkyl-3-hydroxy-2-phenylcyclopent-2-enones as herbicides” (Syngenta Limited, priority 2008, dated 2015).

Key:
Format in all cases: in vivo
[1] = tested on: Alopecurus myosuroides (ALOMY); experiment: Example A pre-emergence herbicidal test, ALOMY; conditions: rate 500 g/ha, evaluated 19 or 20 days after spraying
Protocol: (§1) Seeds of a variety of test species were sown in standard soil in pots. After cultivation for one day (pre-emergence) or after 10 days cultivation (post-emergence) under controlled conditions in a glasshouse, the plants were sprayed with an aqueous spray solution derived from the formulation of the technical active ingredient in 0.6 ml acetone and 45 ml formulation solution containing 10.6% Emulsogen EL (Registry number 61791-12-6), 42.2% N-methylpyrrolidone, 42.2% dipropylene glycol monomethyl ether (Registry number 34590-94-8) and 0.2% X-77 (Registry number 11097-66-8). The test plants were then grown in a greenhouse under optimum conditions until, 14 or 15 days later for post-emergence and 19 or 20 days for pre-emergence, the test was evaluated (100=total damage to plant; 0=no damage to plant). Alopecurus myosuroides (ALOMY), Avena fatua (AVEFA), Lolium perenne (LOLPE), Setaria faberi (SETFA), Digitaria sanguinalis (DIGSA), Echinochloa crus-galli (ECHCG) Pre-Emergence Activity

Avena fatua (AVEFA) [2] = experiment: Example A pre-emergence herbicidal test, AVEFA; conditions: rate 500 g/ha, evaluated 19 or 20 days after spraying
Protocol: as §1

Lolium perenne (LOLPE) [3] = experiment: Example A pre-emergence herbicidal test, LOLPE; conditions: rate 500 g/ha, evaluated 19 or 20 days after spraying
Protocol: as §1

Setaria faberi (SETFA) [4] = experiment: Example A pre-emergence herbicidal test, SETFA; conditions: rate 500 g/ha, evaluated 19 or 20 days after spraying
Protocol: as §1

[5] = tested on: Digitaria sanguinalis (DIGSA); experiment: Example A pre-emergence herbicidal test, DIGSA; conditions: rate 500 g/ha, evaluated 19 or 20 days after spraying
Protocol: as §1

[6] = tested on: Echinochloa crus-galli (ECHCG); experiment: Example A pre-emergence herbicidal test, ECHCG; conditions: rate 500 g/ha, evaluated 19 or 20 days after spraying
Protocol: as §1

[7] = tested on: Alopecurus myosuroides (ALOMY); experiment: Example A post-emergence herbicidal test, ALOMY; conditions: rate 125 g/ha, evaluated 14 or 15 days after spraying
Protocol: as §1, with “Post-Emergence” for “Pre-Emergence”

Avena fatua (AVEFA) [8] = experiment: Example A post-emergence herbicidal test, AVEFA; conditions: rate 125 g/ha, evaluated 14 or 15 days after spraying
Protocol: as §1, with “Post-Emergence” for “Pre-Emergence”

Lolium perenne (LOLPE) [9] = experiment: Example A post-emergence herbicidal test, LOLPE; conditions: rate 125 g/ha, evaluated 14 or 15 days after spraying
Protocol: as §1, with “Post-Emergence” for “Pre-Emergence”

Setaria faberi (SETFA) [10] = experiment: Example A post-emergence herbicidal test, SETFA; conditions: rate 125 g/ha, evaluated 14 or 15 days after spraying
Protocol: as §1, with “Post-Emergence” for “Pre-Emergence”

[11] = tested on: Digitaria sanguinalis (DIGSA); experiment: Example A post-emergence herbicidal test, DIGSA; conditions: rate 125 g/ha, evaluated 14 or 15 days after spraying
Protocol: as §1, with “Post-Emergence” for “Pre-Emergence”

[12] = tested on: Echinochloa crus-galli (ECHCG); experiment: Example A post-emergence herbicidal test, ECHCG; conditions: rate 125 g/ha, evaluated 14 or 15 days after spraying
Protocol: as §1, with “Post-Emergence” for “Pre-Emergence”

Row | Compound | Pre-Emergence Activity ALOMY (100=total damage to plant; 0=no damage to plant) [1] | Pre-Emergence Activity AVEFA (100=total damage to plant; 0=no damage to plant) (Avena fatua (AVEFA) [2]) | Pre-Emergence Activity LOLPE (100=total damage to plant; 0=no damage to plant) (Lolium perenne (LOLPE) [3]) | Pre-Emergence Activity SETFA (100=total damage to plant; 0=no damage to plant) (Setaria faberi (SETFA) [4]) | Pre-Emergence Activity DIGSA (100=total damage to plant; 0=no damage to plant) [5] | Pre-Emergence Activity ECHCG (100=total damage to plant; 0=no damage to plant) [6] | Post-Emergence Activity ALOMY (100=total damage to plant; 0=no damage to plant) [7] | Post-Emergence Activity AVEFA (100=total damage to plant; 0=no damage to plant) (Avena fatua (AVEFA) [8]) | Post-Emergence Activity LOLPE (100=total damage to plant; 0=no damage to plant) (Lolium perenne (LOLPE) [9]) | Post-Emergence Activity SETFA (100=total damage to plant; 0=no damage to plant) (Setaria faberi (SETFA) [10]) | Post-Emergence Activity DIGSA (100=total damage to plant; 0=no damage to plant) [11] | Post-Emergence Activity ECHCG (100=total damage to plant; 0=no damage to plant) [12]
1 | CCc1ccc(-c2ccc(Cl)cc2)cc1C1C(=O)CC(CC2CCOCC2)C1=O (stereo not drawn) [Compound T2] | 70 | 10 | 90 | 70 | 80 | 70 | 80 | 40 | 20 | 100 | 100 | 100
2 | CCc1cc(C)cc(CC)c1C1C(=O)CC(CC2CCOCC2)C1=O (stereo not drawn) [Compound T1] | 100 | 90 | 100 | 70 | 100 | 80 | 100 | 90 | 100 | 70 | 100 | 100
